# What was measured:
# [1] = target: T1, FGFR4 (Homo sapiens, UniProt P22455); assay: Kinase binding assay (kinase-tagged T7 phage, qPCR), Kd; conditions: read-out: FGFR4 (Kd nM)
# T1 construct: made in house; host or cells: E. coli derived from BL21, infected with T7 phage
# [2] = target: T2, FGFR3 (Homo sapiens, UniProt P22607); assay: as above; conditions: read-out: FGFR3 (Kd nM)
# T2 construct: made in house; host or cells: E. coli derived from BL21, infected with T7 phage
# [3] = target: T3, BCR-FGFR1 Ba/F3 (Homo sapiens, UniProt P11362); assay: Ba/F3 cell viability assay (CellTiter-Glo 2.0); format: cell-based; conditions: Ba/F3 BCR-FGFR1 cells, 48 hours
# T3 construct: host or cells: Ba/F3; the other entry of the earlier key: BCR (P11274, Breakpoint cluster region protein)
# T3 sequence (P11362 478-767 limits assumed): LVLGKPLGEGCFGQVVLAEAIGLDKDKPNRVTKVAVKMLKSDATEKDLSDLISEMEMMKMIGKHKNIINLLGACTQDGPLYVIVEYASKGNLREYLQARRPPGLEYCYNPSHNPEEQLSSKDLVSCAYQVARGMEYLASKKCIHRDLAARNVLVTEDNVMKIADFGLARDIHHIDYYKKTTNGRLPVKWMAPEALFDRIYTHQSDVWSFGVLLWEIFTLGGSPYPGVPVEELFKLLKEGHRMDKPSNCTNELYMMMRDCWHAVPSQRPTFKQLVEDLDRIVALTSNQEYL
# [4] = target: T4, FGFR3-BAIAP2L1 Ba/F3 (Homo sapiens, UniProt P22607); assay: Ba/F3 cell viability assay (CellTiter-Glo 2.0); format: cell-based; conditions: Ba/F3 FGFR3-BAIAP2L1 cells, 48 hours
# T4 construct: host or cells: Ba/F3; the other entry of the earlier key: BAIAP2L1 (Q9UHR4, BAR/IMD domain-containing adapter protein 2-like 1)
# T4 sequence (P22607 397-758 limits assumed): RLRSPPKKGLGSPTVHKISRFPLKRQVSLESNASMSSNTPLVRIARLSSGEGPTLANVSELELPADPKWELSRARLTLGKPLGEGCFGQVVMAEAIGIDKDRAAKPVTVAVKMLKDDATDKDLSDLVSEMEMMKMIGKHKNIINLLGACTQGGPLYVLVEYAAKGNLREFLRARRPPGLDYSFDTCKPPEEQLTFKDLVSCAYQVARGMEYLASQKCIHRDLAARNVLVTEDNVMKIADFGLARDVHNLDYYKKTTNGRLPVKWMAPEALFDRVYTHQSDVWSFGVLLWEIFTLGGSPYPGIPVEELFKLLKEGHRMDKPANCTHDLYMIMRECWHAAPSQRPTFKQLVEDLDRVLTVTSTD
# [5] = target: T5, BCR-FGFR4 Ba/F3 (Homo sapiens, UniProt P22455); assay: Ba/F3 cell viability assay (CellTiter-Glo 2.0); format: cell-based; conditions: Ba/F3 BCR-FGFR4 cells, 48 hours
# T5 construct: host or cells: Ba/F3; the other entry of the earlier key: BCR (P11274, Breakpoint cluster region protein)
# T5 sequence (P22455 467-755 limits assumed): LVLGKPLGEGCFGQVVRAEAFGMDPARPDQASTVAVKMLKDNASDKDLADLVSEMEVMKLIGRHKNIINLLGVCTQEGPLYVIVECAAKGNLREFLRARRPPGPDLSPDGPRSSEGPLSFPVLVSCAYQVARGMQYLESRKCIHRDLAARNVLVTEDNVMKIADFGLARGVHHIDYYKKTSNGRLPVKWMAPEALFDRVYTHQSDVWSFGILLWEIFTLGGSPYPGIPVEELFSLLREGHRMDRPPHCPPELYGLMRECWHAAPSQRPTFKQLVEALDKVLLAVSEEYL
# [6] = target: T6, FGFR1 (Homo sapiens, UniProt P11362); assay: Kinase binding assay (kinase-tagged T7 phage, qPCR), Kd; conditions: read-out: FGFR1 (Kd nM)
# T6 construct: made in house; host or cells: E. coli derived from BL21, infected with T7 phage
# T6 sequence (P11362 22-822): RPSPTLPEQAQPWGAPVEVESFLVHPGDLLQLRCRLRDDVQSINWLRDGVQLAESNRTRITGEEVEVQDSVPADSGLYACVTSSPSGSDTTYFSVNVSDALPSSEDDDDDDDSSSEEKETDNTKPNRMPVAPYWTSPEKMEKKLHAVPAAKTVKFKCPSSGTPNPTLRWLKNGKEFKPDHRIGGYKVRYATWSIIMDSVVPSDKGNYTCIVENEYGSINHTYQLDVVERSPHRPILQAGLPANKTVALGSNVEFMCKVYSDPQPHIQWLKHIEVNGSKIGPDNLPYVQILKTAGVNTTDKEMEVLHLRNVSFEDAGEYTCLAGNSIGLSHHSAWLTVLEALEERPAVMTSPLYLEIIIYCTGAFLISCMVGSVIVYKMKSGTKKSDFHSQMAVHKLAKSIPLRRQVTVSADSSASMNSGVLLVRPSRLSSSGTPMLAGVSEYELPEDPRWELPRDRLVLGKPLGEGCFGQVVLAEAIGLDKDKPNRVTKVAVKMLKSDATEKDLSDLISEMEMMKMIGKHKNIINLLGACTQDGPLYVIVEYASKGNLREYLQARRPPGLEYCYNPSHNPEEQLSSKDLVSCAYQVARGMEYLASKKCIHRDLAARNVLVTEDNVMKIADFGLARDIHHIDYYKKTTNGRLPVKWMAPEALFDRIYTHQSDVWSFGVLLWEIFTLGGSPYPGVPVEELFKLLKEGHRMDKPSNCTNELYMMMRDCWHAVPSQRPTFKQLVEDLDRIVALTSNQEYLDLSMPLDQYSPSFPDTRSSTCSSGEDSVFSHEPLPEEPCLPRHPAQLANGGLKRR
# [7] = target: T7, FGFR2 (Homo sapiens, UniProt P21802); assay: as above; conditions: read-out: FGFR2 (Kd nM)
# T7 construct: made in house; host or cells: E. coli derived from BL21, infected with T7 phage
# T7 sequence (P21802 22-821): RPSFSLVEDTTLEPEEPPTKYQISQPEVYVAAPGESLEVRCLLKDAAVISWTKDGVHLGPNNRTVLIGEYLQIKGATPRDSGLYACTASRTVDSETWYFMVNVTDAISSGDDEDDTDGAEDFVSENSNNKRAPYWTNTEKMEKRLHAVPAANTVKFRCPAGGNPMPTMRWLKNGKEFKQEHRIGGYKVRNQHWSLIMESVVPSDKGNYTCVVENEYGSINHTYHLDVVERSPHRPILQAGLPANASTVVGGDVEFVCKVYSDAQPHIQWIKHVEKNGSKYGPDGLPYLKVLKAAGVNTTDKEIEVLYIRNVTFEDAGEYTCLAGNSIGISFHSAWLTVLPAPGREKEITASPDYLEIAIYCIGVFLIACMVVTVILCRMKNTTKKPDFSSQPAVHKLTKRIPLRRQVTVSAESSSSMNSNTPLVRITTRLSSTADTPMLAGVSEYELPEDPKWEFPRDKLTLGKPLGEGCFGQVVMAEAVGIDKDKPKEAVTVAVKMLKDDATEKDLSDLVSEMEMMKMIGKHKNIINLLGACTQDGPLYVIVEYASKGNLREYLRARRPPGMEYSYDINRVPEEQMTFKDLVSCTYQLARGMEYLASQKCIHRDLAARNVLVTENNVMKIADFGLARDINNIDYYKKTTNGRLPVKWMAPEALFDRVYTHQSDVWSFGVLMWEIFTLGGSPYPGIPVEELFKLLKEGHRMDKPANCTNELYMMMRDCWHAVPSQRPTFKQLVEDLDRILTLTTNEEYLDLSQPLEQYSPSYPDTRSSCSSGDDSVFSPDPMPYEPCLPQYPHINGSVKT
# T1 sequence (P22455 22-802): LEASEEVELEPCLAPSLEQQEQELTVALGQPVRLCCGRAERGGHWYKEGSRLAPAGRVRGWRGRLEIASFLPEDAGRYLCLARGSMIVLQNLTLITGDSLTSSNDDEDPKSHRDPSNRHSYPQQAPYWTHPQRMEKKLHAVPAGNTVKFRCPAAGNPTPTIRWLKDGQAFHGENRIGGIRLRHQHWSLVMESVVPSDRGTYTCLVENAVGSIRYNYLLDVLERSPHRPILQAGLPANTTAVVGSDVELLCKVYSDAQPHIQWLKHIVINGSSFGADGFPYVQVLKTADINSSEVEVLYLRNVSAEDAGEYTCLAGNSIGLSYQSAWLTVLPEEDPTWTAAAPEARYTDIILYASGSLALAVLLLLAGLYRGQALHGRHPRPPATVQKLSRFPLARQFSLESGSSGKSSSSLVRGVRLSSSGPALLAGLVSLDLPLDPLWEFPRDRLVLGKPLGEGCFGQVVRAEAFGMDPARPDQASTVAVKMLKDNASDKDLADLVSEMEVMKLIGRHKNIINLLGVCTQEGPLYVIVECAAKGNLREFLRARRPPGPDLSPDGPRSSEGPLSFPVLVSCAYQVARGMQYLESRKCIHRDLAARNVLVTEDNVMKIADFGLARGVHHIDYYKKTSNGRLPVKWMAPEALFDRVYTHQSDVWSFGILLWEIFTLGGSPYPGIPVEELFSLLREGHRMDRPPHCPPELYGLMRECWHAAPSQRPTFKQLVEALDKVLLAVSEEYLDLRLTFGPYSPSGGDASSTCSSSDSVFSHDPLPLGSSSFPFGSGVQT
# T2 sequence (P22607 23-806): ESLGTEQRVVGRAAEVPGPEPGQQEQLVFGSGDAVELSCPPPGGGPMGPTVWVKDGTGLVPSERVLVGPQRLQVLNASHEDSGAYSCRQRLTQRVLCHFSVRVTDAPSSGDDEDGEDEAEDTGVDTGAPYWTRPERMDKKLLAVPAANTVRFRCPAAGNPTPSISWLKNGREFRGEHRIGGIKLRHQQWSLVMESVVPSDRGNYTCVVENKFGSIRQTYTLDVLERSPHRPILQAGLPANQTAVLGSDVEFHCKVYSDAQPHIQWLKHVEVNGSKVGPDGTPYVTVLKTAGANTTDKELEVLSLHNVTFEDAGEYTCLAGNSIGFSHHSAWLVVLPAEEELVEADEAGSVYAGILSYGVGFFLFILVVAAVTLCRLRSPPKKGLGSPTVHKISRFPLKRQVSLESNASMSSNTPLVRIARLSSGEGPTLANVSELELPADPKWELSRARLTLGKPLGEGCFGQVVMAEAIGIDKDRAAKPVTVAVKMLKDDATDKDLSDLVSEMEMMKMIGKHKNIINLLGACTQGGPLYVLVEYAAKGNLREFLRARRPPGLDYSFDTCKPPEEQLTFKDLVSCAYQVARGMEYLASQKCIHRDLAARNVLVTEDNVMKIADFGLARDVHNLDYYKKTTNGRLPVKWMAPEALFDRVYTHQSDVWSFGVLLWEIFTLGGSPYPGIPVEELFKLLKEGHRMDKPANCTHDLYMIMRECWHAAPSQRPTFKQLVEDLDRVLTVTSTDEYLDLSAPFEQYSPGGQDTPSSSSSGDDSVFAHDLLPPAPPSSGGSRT
SMILES,Kd [1],Kd [2],IC50 [3],IC50 [4],IC50 [5],Kd [6],Kd [7]
"C=CC(=O)N1CCOc2ncc(-c3n[nH]c4ccc(O[C@H](C)c5c(Cl)cncc5Cl)cc34)cc21 [Example 25, 1-[7-[5-[(1R)-1-(3,5-dichloro-4-pyridyl)ethoxy]-1H-indazol-3-yl]-2,3-dihydro-pyrido[2,3-b][1,4]oxazin-1-yl]prop-2-en-1-one]",0.1 to 100 nM,> 1000 nM,> 1000 nM,250 to 1000 nM,0.1 to 100 nM,> 1000 nM,> 1000 nM
"Cc1cnnc(C)c1[C@@H](C)Oc1ccc2[nH]nc(-c3cc(C#N)cc(OCCO)c3)c2c1 [Example 72, 3-[5-[(1R)-1-(3,5-dimethylpyridazin-4-yl)ethoxy]-1H-indazol-3-yl]-5-(2-hydroxyethoxy)benzonitrile]",0.1 to 100 nM,0.1 to 100 nM,250 to 1000 nM,0.1 to 100 nM,100 to 250 nM,0.1 to 100 nM,0.1 to 100 nM

# — patent US20240316022A1 (TYRA BIOSCIENCES, INC., priority 2021, published 2024)
